Source: patent publication US8383139B2 (Bayer CropScience AG, priority 2008, dated 2013)

Assays:
[1] = tested on: Septoria tritici; assay: Septoria tritici test (wheat)/protective; format: in vivo; conditions: Zymoseptoria tritici, 504 h, 500 ppm active substance, protective, evaluation 21 days after inoculation, read-out: degree of effectiveness
Procedure, shortened: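 Young wheat plants sprayed with compound in dimethylacetamide/emulsifier-water, then inoculated with S. tritici spores once dry. Kept 48 h at 20 °C/100% RH, 60 h at 15 °C/100% RH, then greenhouse ~15 °C/80% RH. Scored 21 days post-inoculation as % efficacy versus untreated control.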

[2] = tested on: Puccinia triticina; assay: Puccinia triticina test (wheat)/protective; format: in vivo; conditions: 192 h, 500 ppm active substance, protective, evaluation 8 days after inoculation, read-out: degree of effectiveness
Procedure, shortened: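 Protective test: young wheat plants sprayed with compound (in N,N-dimethylacetamide/emulsifier, diluted in water) at the stated rate, dried, then inoculated with Puccinia triticina spores; 48 h at 20 °C, 100% RH, then greenhouse ~20 °C, ~80% RH. Efficacy scored 8 days post-inoculation, 0% = untreated control, 100% = no infestation.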

[3] = tested on: Sphaerotheca fuliginea; assay: Sphaerotheca test (cucumber)/protective; format: in vivo; conditions: Podosphaera fuliginea, 168 h, 500 ppm active substance, protective, evaluation 7 days after inoculation, read-out: degree of effectiveness
Procedure, shortened: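 Young cucumber plants sprayed at the stated rate with active substance in DMF/alkylaryl polyglycol ether emulsifier diluted in water, then inoculated with Sphaerotheca fuliginea spores one day later. Kept in greenhouse at 70% relative humidity, 23° C.; scored 7 days post-inoculation as % efficacy (0% = untreated control, 100% = no infestation).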

[4] = tested on: Uromyces appendiculatus; assay: Uromyces test (beans)/protective; format: in vivo; conditions: 240 h, 100 ppm active substance, protective, evaluation 10 days after inoculation, read-out: degree of effectiveness
Experimental: (§1) • Solvents: 24.5 parts by weight of acetone • 24.5 parts by weight of dimethylacetamide • Emulsifier: 1 part by weight of alkylaryl polyglycol ether (polyoxyethylene (16) tristearylphenyl ether)
(§2) To prepare a suitable active substance composition, 1 part by weight of active substance is mixed with the given amounts of solvents and emulsifier and the concentrate is diluted to the desired concentration using water.
For the testing of protective effectiveness, young plants are sprayed with the active substance composition in the application rate given. After the spray coating has been dried on, the plants are inoculated with an aqueous suspension of the spores of the bean rust pathogen Uromyces appendiculatus and then remain in an incubation chamber at approximately 20° C. and 100% relative humidity for 1 day.
The plants are then placed in a greenhouse at approximately 21° C. and a relative humidity of approximately 90%.
Evaluation is carried out 10 days after the inoculation. In this connection, 0% means a degree of effectiveness corresponding to that of the control, while a degree of effectiveness of 100% means that no infestation is observed.

[5] = log P by HPLC on reversed-phase columns (C 18), EEC Directive 79/831 Annex V.A8; format: physicochemical; conditions: reversed-phase C18 HPLC column, pH 2.3, [a] HPLC, acid region pH 2.3, 0.1% aqueous phosphoric acid and acetonitrile; read-out: log p
[6] = tested on: Alternaria solani; assay: Alternaria test (tomato)/protective; format: in vivo; conditions: 72 h, 100 ppm active substance, protective, evaluation 3 days after inoculation, read-out: degree of effectiveness
Experimental: as §1, §2
For the testing of protective effectiveness, young plants are sprayed with the active substance composition in the application rate given. After the spray coating has been dried on, the plants are inoculated with an aqueous suspension of spores of Alternaria solani. The plants are then placed in an incubation chamber at approximately 20° C. and 100% relative humidity.
Evaluation is carried out 3 days after the inoculation. In this connection, 0% means a degree of effectiveness corresponding to that of the control, while a degree of effectiveness of 100% means that no infestation is observed.

chromatographic logP [5]	SMILES	pest or weed control at 500 ppm [1] [%]	pest or weed control at 500 ppm [2] [%]	pest or weed control at 500 ppm [3] [%]	pest or weed control at 100 ppm [4] [%]	pest or weed control at 100 ppm [6] [%]
2.1	CCN(C)C=Nc1cc(C)c(Oc2nc(Cc3ccccc3C(F)(F)F)ns2)cc1C [Example 42, N′-[2,5-dimethyl-4-({3-[2-(trifluoromethyl)benzyl]-1,2,4-thiadiazol-5-yl}oxy)phenyl]-N-ethyl-N-methylimidoformamide]	≥ 70	≥ 70	≥ 70	≥ 70	≥ 70
2.35	Cc1cc(Oc2nc(Cc3ccc(Cl)c(Cl)c3)ns2)c(C)cc1N=CN(C)C(C)C [Example 47, N′-(4-{[3-(3,4-dichlorobenzyl)-1,2,4-thiadiazol-5-yl]oxy}-2,5-dimethylphenyl)-N-methyl-N-(propan-2-yl)imidoformamide]	≥ 70	≥ 70	≥ 70	≥ 70	≥ 70
2.3	CCN(C)C=Nc1cc(C)c(Oc2nc(Cc3ccc(Cl)c(Cl)c3)ns2)cc1C [Example 51, N′-(4-{[3-(3,4-dichlorobenzyl)-1,2,4-thiadiazol-5-yl]oxy}-2,5-dimethylphenyl)-N-ethyl-N-methylimidoformamide]	≥ 70	≥ 70	≥ 70	≥ 70	≥ 70

The remaining lines, values behind:

SMILES	chromatographic logP [5]	pest or weed control at 500 ppm [1] [%]	pest or weed control at 500 ppm [2] [%]	pest or weed control at 500 ppm [3] [%]	pest or weed control at 100 ppm [4] [%]	pest or weed control at 100 ppm [6] [%]
Cc1cc(Oc2nc(C(C)c3ccc(Cl)cc3)ns2)c(C)cc1N=CN(C)C(C)C (stereo not drawn) [Example 19, N′-[4-({3-[1-(4-chlorophenyl)ethyl]-1,2,4-thiadiazol-5-yl}oxy)-2,5-dimethylphenyl]-N-methyl-N-(propan-2-yl)imidoformamide]	2.46	≥ 70	≥ 70	≥ 70	≥ 70	≥ 70
CCN(C)C=Nc1cc(C)c(Oc2nc(Cc3ccccc3)ns2)cc1C [Example 23, N′-{4-[(3-benzyl-1,2,4-thiadiazol-5-yl)oxy]-2,5-dimethylphenyl}-N-ethyl-N-methylimidoformamide]	1.71	≥ 70	≥ 70	≥ 70	≥ 70	≥ 70
Cc1cc(Oc2nc(C(C)(C)c3ccc(Cl)cc3)ns2)c(C)cc1N=CN1CCCCC1 [Example 26, 4-({3-[2-(4-chlorophenyl)propan-2-yl]-1,2,4-thiadiazol-5-yl}oxy)-2,5-dimethyl-N-(piperidin-1-ylmethylidene)aniline]	2.76	≥ 70	≥ 70	≥ 70	≥ 70	≥ 70
CCN(C)C=Nc1cc(Cl)c(Oc2nc(C(C)(C)c3ccc(Cl)cc3)ns2)cc1C [Example 28, N′-[5-chloro-4-({3-[2-(4-chlorophenyl)propan-2-yl]-1,2,4-thiadiazol-5-yl}oxy)-2-methylphenyl]-N-ethyl-N-methylimidoformamide]	2.73	≥ 70	≥ 70	≥ 70	≥ 70	≥ 70
Cc1cc(Oc2nc(Cc3ccccc3)ns2)c(C)cc1N=CN1CCCCC1 [Example 36, 4-[(3-benzyl-1,2,4-thiadiazol-5-yl)oxy]-2,5-dimethyl-N-(piperidin-1-ylmethylidene)aniline]	1.91	≥ 70	≥ 70	≥ 70	≥ 70	≥ 70
